Like-named read-outs stand apart in the source and are kept apart here.
Legend:
Assay in all cases: Two-step fluorescence assay for determination of IC50
Type in all cases: biochemical
HDAC1 = HDAC1 (Homo sapiens, UniProt Q13547)
Description: (§1) In order to evaluate the inhibitory characteristics of example compounds of the invention, IC50 values were determined for such compounds. […] A two-step assay was used for this purpose.
(§2) To obtain the IC50 value for an individual compound/HDAC pair, a two-step assay can be performed based on a fluorescence signal. In principle, an ε-acetylated lysine substrate is deacetylated by histone-deacetylases in the first step. Trypsin releases detectable 7-amino-4-methylcoumarin (ex = excitation wavelength: 390 nm, em = emission wavelength: 460 nm) by cleaving the substrate at the deacetylated lysine in a subsequent reaction^[9]. The enzyme activity is inhibited by a suitable HDACi.
(§3) The obtained data are interpreted using a four parameter fit. Based on this fit, the IC50 value can be estimated. Analysis ot the data and calculation of the IC50 values was accomplished using a four-parameter logistic model protocol as previously described by Vølund^[16]. For nonlinear fits the Levenberg-Marquardt algorithm was applied^[17],[18]. […] Table 1: IC50 values in µM for synthesized compounds of the invention with a perfluorinated linker. […] HDAH = HDAC-like amidohydrolase

HDAC6 = target: T1, HDAC6 (Homo sapiens, UniProt Q9UBN7)
T1 sequence (Q9UBN7 1-1215): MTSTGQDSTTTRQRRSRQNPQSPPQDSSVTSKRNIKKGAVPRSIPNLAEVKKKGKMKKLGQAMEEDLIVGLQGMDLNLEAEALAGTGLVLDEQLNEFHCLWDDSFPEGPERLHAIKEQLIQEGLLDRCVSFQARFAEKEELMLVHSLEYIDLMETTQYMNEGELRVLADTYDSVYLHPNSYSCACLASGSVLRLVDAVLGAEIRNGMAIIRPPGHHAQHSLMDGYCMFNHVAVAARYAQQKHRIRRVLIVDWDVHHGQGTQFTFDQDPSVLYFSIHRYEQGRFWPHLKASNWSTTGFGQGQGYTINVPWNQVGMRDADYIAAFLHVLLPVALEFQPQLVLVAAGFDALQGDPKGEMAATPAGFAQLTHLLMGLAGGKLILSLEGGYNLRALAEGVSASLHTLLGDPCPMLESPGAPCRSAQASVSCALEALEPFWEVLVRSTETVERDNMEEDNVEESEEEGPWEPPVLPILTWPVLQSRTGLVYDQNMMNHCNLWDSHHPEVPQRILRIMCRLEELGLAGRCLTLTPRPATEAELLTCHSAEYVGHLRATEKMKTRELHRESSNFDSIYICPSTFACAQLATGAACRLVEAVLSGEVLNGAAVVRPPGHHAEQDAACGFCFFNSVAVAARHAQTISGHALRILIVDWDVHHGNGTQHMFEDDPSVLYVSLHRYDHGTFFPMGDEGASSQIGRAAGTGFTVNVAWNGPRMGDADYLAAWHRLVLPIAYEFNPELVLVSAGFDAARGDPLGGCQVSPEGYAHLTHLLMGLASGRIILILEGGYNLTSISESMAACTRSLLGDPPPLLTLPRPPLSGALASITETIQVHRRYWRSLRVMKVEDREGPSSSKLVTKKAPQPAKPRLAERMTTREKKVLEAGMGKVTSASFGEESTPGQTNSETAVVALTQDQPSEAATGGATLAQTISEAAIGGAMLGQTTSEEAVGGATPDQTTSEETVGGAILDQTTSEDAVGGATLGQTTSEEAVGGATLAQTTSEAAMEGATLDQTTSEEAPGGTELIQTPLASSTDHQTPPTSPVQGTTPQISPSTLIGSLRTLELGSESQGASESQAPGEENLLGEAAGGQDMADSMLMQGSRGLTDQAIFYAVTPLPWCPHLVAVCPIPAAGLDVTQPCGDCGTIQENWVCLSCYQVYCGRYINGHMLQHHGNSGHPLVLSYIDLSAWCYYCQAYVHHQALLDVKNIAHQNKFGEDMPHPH
Description: as §1, §2, §3

HDAC7 = target: T2, HDAC7 (Homo sapiens, UniProt Q8WUI4)
T2 sequence (Q8WUI4 1-952): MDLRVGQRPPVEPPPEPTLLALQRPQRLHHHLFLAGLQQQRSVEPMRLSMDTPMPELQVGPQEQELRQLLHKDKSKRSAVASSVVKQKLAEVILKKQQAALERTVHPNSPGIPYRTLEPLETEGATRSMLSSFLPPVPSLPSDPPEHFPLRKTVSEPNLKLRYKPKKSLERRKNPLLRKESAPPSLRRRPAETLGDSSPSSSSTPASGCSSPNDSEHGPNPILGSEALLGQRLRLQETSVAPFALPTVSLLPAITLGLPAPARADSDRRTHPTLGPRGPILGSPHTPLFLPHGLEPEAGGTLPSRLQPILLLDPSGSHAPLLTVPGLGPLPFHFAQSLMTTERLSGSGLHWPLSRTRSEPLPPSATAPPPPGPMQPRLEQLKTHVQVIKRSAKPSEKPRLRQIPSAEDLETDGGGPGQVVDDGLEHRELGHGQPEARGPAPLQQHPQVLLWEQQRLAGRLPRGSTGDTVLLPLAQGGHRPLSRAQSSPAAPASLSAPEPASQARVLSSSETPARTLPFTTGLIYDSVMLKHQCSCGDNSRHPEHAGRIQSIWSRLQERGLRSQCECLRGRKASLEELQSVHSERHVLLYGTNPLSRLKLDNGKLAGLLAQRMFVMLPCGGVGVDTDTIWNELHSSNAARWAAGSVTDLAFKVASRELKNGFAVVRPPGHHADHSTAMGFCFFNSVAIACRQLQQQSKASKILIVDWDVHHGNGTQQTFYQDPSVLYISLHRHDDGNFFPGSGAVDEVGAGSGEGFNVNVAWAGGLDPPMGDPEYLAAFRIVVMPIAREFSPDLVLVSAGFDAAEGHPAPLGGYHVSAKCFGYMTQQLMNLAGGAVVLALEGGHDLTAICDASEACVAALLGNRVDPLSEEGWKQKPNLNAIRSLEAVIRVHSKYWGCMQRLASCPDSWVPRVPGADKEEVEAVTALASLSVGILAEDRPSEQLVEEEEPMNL
Description: as §1, §2, §3

HDAC8 = target: T3, HDAC8 (Homo sapiens, UniProt Q9BY41)
T3 sequence (Q9BY41 1-377): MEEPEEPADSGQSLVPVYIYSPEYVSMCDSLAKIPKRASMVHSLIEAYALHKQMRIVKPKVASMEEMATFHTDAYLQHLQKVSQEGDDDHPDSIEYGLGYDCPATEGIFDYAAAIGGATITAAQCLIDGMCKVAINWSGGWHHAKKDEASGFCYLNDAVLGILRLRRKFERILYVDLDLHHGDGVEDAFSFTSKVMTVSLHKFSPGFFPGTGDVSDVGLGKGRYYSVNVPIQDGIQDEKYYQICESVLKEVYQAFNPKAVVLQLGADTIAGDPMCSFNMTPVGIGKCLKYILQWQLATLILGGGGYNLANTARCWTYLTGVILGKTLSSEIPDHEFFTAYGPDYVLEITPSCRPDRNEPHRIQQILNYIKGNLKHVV
Description: as §1, §2, §3

HDAH = target: T4, HDAH (Alcaligenes sp., UniProt Q70I53)
T4 sequence (Q70I53 1-369): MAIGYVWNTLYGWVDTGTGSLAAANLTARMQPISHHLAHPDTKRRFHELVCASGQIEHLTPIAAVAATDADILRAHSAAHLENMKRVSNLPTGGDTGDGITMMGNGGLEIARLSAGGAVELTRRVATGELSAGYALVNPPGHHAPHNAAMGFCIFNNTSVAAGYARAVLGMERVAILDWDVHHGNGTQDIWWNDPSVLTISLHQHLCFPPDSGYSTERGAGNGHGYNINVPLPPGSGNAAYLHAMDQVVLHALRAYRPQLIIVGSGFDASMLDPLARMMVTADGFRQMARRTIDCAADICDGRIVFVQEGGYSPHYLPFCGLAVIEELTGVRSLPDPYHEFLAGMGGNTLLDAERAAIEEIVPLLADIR
Description: as §1, §2, §3

[1] = ε-acetylated lysine substrate, trypsin release of 7-amino-4-methylcoumarin, four parameter fit, read-out: IC50 values HDAC1
[2] = ε-acetylated lysine substrate, trypsin release of 7-amino-4-methylcoumarin, four parameter fit, read-out: IC50 values HDAC6
[3] = ε-acetylated lysine substrate, trypsin release of 7-amino-4-methylcoumarin, four parameter fit, read-out: IC50 values HDAC7
[4] = HDAC-like amidohydrolase, ε-acetylated lysine substrate, trypsin release of 7-amino-4-methylcoumarin, four parameter fit, read-out: IC50 values HDAH

Chain of HDAC1 (Q13547 whole entry): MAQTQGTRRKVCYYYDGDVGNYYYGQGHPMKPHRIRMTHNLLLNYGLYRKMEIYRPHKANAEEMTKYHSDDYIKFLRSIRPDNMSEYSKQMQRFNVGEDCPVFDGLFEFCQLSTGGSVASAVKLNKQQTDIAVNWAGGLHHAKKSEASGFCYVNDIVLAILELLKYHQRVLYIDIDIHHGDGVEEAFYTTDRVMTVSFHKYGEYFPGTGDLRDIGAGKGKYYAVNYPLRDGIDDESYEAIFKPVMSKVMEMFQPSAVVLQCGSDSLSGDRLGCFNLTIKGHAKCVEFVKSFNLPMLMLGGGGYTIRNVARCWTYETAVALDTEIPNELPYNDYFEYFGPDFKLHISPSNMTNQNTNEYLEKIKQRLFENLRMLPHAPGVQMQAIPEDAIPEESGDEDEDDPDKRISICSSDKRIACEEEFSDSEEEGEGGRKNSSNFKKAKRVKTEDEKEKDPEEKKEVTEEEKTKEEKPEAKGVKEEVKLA

| Compound | IC50 (HDAC1; [1]) | IC50 (HDAC6; [2]) | IC50 (HDAC7; [3]) | IC50 (HDAC8) | IC50 (HDAH; [4]) | IC50 (HDAC8; ε-acetylated lysine substrate, trypsin release of 7-amino-4-methylcoumarin, four parameter fit, read-out: IC50 values HDAC8) | IC50 (HDAC1) | IC50 (HDAC6) | IC50 (HDAC7) | IC50 (HDAH) |
| --- | --- | --- | --- | --- | --- | --- | --- | --- | --- | --- |
| O=C(NO)C(F)(F)C(F)(F)C(F)(F)C(F)(F)C(F)(F)C(F)(F)C(=O)Nc1ccc(-c2cnnn2-c2ccccc2)cc1 [LU236, 2,2,3,3,4,4,5,5,6,6,7,7-Dodecafluorooctanedioic acid hydroxyamide [4-(1-phenyl-1H-[1,2,3]triazol-5-yl)phenyl]amide] | 83.1 µM | 56.6 µM | 16.4 µM | > 100 µM | 10.4 µM | – | – | – | – | – |
| O=C(NO)C(F)(F)C(F)(F)C(F)(F)C(F)(F)C(F)(F)C(F)(F)C(=O)Nc1ccc(-c2cn(-c3ccccc3)nn2)cc1 [LU 233, 2,2,3,3,4,4,5,5,6,6,7,7-Dodecafluorooctanedioic acid hydroxyamide {4-[1-phenyl-1H-(1,2,3)triazol-4-yl]phenyl}amide] | > 100 µM | 9.81 µM | 42.2 µM | – | 16.9 µM | > 100 µM | – | – | – | – |
| O=C(NO)C1CCCCC1C(=O)Nc1ccccc1 (stereo not drawn) [RK216, reference compound] | – | – | – | > 100 µM | – | – | > 100 µM | 44 µM | > 100 µM | 34.8 µM |

Source: patent publication EP2486923B1, “Histone deacetylase (HDAC) inhibiting compounds and method of making same” (Dr. Felix Jäger und Dr. Stefan Drinkuth Laborgemeinschaft …, priority 2011, dated 2012)
